Experimental data taken from paper PMC13110364, “Design, Synthesis, and Biological Evaluation of Novel Triazine‐Based Dual Histone Deacetylase/phosphatidylinositol 3‐kinase Inhibitors for Breast Cancer Therapy” (Chemmedchem, 2026).

Columns and labels:
[1] = system: MDA‐MB‐231 triple‐negative breast cancer cell line; assay: MTS cell viability assay, MDA-MB-231; format: cell-based; settings: MDA‐MB‐231 cells, 72 h treatment
Description: The cell viability effects of compounds 5a–5f were assessed in LY2, JIMT1, and MDA‐MB‐231 breast cancer cell lines using the 3‐(4,5‐dimethylthiazol‐2‐yl)‐5‐(3‐carboxymethoxyphenyl)‐2‐(4‐sulfophenyl)‐2H‐tetrazolium (MTS) assay. The MTS assay measures metabolic viability and serves as a first‐pass screen.
JIMT‐1 (DSMZ ACC 589) and MDA‐MB‐231 (ATCC HTB‐26) breast cancer cell lines were maintained in Dulbecco's Modified Eagle Medium (DMEM) High Glucose with L‐glutamine (D5796, Sigma) supplemented with 10% fetal calf serum. MCF7‐derivative LY2 breast cancer cells were previously described (REF: PMID: 33420368). LY2 cells were cultured in phenol red‐free MEM (PRF‐MEM; 51 200‐046, Gibco) supplemented with 10% charcoal dextran‐stripped fetal calf serum (CDS‐FCS; F6765, Merck), 2 mmol/L L‐glutamine (G7513, Merck), and 10^−8 mol/L 4‐hydroxytamoxifen (4‐OHT; H7904, Merck). All cell lines were maintained at 37°C in a humidified incubator with 5% CO2 and regularly authenticated and tested for mycoplasma.
Cell viability was evaluated in response to increasing concentrations of 5a‐5f (0.3, 1, 3, 10, and 30 μM) or vehicle control (0.1% DMSO). LY2, JIMT1, and MDA‐MB‐231 cells were seeded at a density of 2,500 cells per well in 96‐well plates with a total volume of 100 μL per well. Prior to treatment, cells were serum‐deprived for 24 h. Following serum depletion, cells were treated in complete growth medium for 72 h. Cell viability was assessed using the MTS assay (G1111, Promega) according to the manufacturer's instructions. Absorbance was measured at 495 nm using a BioTek Synergy HTX Multi‐Mode Microplate Reader (Agilent). Results were normalized to the vehicle control (DMSO), and the half‐maximal inhibitory concentration (IC50) of the inhibitors was determined by nonlinear regression (curve fit) using a four‐parameter variable slope model.

PI3Kα = PI3Kα (Homo sapiens, UniProt P42336); assay: PI3Kα inhibition, 10-dose IC50 (Reaction Biology Corporation); format: biochemical
Sequence of PI3Kα (P42336 whole entry): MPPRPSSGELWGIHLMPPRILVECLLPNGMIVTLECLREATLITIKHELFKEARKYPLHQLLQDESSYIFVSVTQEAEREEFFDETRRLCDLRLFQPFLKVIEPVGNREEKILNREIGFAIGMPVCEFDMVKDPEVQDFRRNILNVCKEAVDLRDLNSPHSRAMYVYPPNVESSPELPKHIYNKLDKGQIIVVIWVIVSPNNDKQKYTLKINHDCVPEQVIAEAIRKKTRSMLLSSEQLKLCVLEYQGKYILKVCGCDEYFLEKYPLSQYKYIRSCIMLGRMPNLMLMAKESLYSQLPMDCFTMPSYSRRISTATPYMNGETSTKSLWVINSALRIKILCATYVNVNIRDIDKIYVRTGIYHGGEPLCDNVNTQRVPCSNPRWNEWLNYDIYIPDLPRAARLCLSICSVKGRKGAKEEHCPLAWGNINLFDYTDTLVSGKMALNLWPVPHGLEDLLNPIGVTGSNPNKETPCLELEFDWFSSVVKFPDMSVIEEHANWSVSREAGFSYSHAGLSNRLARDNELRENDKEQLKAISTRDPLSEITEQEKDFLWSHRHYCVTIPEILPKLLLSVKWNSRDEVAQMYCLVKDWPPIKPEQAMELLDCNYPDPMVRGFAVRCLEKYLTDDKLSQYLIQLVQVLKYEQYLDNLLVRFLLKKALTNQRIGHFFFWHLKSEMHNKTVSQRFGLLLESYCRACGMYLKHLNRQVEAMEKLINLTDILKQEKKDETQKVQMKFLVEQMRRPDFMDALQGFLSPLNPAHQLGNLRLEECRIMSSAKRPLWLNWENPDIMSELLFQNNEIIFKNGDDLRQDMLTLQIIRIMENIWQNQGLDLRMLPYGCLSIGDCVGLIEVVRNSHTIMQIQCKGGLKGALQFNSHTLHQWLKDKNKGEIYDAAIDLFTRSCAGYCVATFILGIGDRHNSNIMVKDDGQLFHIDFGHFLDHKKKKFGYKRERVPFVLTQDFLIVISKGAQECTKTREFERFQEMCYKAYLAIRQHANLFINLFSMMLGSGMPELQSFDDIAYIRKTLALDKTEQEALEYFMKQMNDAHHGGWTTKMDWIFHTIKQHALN
Sequence of PI3Kα (P27986 whole entry partner): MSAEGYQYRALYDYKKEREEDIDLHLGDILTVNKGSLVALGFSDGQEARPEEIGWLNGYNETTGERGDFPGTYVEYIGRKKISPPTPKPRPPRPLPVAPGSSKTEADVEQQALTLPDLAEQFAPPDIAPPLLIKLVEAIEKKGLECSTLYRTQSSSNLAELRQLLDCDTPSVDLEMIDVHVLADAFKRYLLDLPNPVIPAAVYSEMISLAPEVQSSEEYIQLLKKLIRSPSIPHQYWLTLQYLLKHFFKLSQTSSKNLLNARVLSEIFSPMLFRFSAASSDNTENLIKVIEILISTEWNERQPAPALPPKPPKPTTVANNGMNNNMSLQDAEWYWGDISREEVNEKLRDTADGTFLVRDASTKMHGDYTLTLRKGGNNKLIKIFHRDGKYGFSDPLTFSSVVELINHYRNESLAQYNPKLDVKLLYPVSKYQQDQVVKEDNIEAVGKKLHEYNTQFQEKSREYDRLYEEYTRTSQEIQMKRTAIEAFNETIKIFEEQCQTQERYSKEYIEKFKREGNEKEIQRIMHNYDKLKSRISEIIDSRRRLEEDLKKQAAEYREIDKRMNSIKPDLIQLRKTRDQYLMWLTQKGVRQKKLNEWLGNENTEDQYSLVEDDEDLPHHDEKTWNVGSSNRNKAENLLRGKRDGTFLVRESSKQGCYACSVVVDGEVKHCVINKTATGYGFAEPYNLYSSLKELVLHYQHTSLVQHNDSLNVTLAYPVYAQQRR

[2] = system: HDAC6 (acetylated α‐tubulin); assay: Western blot, acetylated α-tubulin in treated cells; format: cell-based; settings: LY2, JIMT1, MDA‐MB‐231 cells, 24 h; seen at 3 µM, further increasing at 10 µM
Description: FIGURE 4 Cell‐based evaluation of compounds 5a– 5f. Dose‐dependent effects of compound treatment (5a‐5f) on breast cancer cell viability across JIMT1 (A), MDA‐MB‐231 (B), and LY2 (C). Cell‐based evaluation of HDAC and PI3K inhibition by compounds 5b and 5f by Western blot. JIMT1 cells were treated for 24 h with compounds 5b (D) and 5f (E) at the concentrations of 1, 3, and 10 µM or with vehicle control (0.1% DMSO). Protein expression levels were analyzed by western blot using antibodies against acetylated α‐tubulin, acetyl H3 (H3K9Ac and H3K14Ac), phospho‐AKT (p‐AKT), and total AKT. GAPDH served as a loading control.
To investigate if 5b and 5f were acting as multitarget inhibitors, we evaluated the modulation of HDAC6 and PI3K signaling pathways by western blot analysis (Figure 4D,E). […]
Total protein samples were extracted from treated cells using a lysis buffer containing 0.1% IGEPAL CA‐630 (I8896, Merck), 0.5% deoxycholic acid (D2510, Merck), and 0.1% SDS (L3771, Merck), freshly supplemented with protease and phosphatase inhibitor cocktail (78442, Thermo Fisher Scientific). Protein concentrations were quantified using the Pierce BCA Protein Assay Kit (23227, Thermo Fisher Scientific) according to the manufacturer's instructions. […] Chemiluminescence signals were detected using the Amersham Imager 680 Imaging System. […]

IC50 ([1]; Homo sapiens, MDA-MB-231, 72 h) [µM]	IC50 [1] [µM]	IC50 (PI3Kα) [nM]	Structure (SMILES)	Acetylated α‐tubulin level, western blot [2]
< 5	3.3 ± 0.13	236	COc1ccc(-c2nc(NCc3ccc(C(=O)NO)cc3)nc(N3CCOCC3)n2)cn1 [Compound 5f, N‐Hydroxy‐4‐(((4‐(6‐Methoxypyridin‐3‐yl)‐6‐Morpholino‐1,3,5‐Triazin‐2‐yl)Amino)Methyl)Benzamide]	accumulation of acetylated α‐tubulin
< 5	4.4 ± 0.54	17.5	O=C(NO)c1ccc(CNc2nc(-c3cccc(O)c3)nc(N3CCOCC3)n2)cc1 [Compound 5b, N‐Hydroxy‐4‐(((4‐(3‐Hydroxyphenyl)‐6‐Morpholino‐1,3,5‐Triazin‐2‐yl)Amino)Methyl)Benzamide]	accumulation of acetylated α‐tubulin
